From US10611757B2, “Crystalline form of chemical compound, and preparation method, composition, and application thereof” (WUHAN LL SCIENCE AND TECHNOLOGY DEVELOPMENT CO., LTD., priority 2016, dated 2020)
“Also recorded” adds a separate entry of the source.

How the values were obtained:
[1] = system: spontaneously hypertensive rats; assay: Antihypertensive efficacy test in spontaneously hypertensive rats (systolic blood pressure and heart rate by implanted sensor); assay type: in vivo, rat; details: SHR, 1 mg/kg; for Systolic blood pressure change / Heart rate change: average ± standard error; for Heart rate change: oral
Protocol: 12-week-old spontaneously hypertensive rats (hereinafter referred to as SHR, purchased from Beijing Weitong Lihua Experimental Animal Technology Co., Ltd.) were anesthetized with 2.5% sodium pentobarbital for intraperitoneal injection. After that, the blood pressure sensing catheter of hypertension implant was inserted into their abdominal aorta, while the implant was fixed to the abdominal wall, and then postoperative daily care was performed after suturing.
Rats with systolic blood pressure exceeding 160 mm Hg were divided into 3 groups (control group, compound (A) group and compound (B) group), wherein each group has 8 rats. The control group was administrated 0.5% sodium carboxymethyl cellulose (hereinafter referred to as CMC-Na); the compound (B) group and the compound (A) group were respectively administered the compound (B) and the compound (A), both of which were dissolved by 0.5% CMC-Na, by intragastric administration, at a dose of 1 mg/kg (calculated by the effective dose of valsartan) and a volume calculated by 4 mL/kg.
The systolic blood pressure and heart rate of SHR were compared before and after administration (the systolic blood pressure and heart rate of SHR before administration as reference value), which were detected three times at each time point with the average value recorded.

[2] = Competition test between crystalline forms at room temperature (ethyl acetate suspension, XRD); assay type: physicochemical; details: for stability under room temperature relative to the competing form: competition in ethyl acetate suspension
Protocol: Equivalent amounts of crystalline form I and crystalline form II samples were mixed well, added with 0.8 ml ethyl acetate to form a suspension, stirred overnight and detected by XRD.
Equivalent amounts of crystalline form II and form III samples were mixed well, added with 0.2 ml ethyl acetate to form a suspension, which was stirred overnight to obtain a crystalline form II determined by XRD detection.
Equivalent amounts of crystalline form I and form III samples were mixed uniformly, added with 0.2 ml ethyl acetate to form a suspension, which was stirred overnight, to obtain a crystalline form I determined by XRD detection.

[3] = Comparative stability of crystalline form III and IV on drying overnight at room temperature (XRD); assay type: physicochemical
From the text: The crystalline form III and the crystalline form IV samples were respectively dried overnight at room temperature.

[4] = Comparative stability test (total impurity content, 25° C., 60% relative humidity); assay type: physicochemical; details: for total impurity content: packed; for chemical stability relative to the amorphous form: total impurity content
Protocol: The stability of an amorphous form, the crystalline form I, a mixture of the crystalline form I and the crystal II, the crystal II, and the crystalline form III of the compound (A) was investigated. Specifically, the amorphous form, the crystalline form I, the mixture of the crystalline form I and the crystalline form II (weight ratio 1:2), the crystalline form II and the crystalline form III were taken 200 mg respectively to be investigated as follows:
Packing: Polyvinyl chloride (PVC) ziplock bag (the inner layer) was vacuumized, aluminum foil (the middle layer) was vacuumized, and aluminum foil desiccant (the outer layer) was vacuum and filled in with nitrogen;
Inspection conditions: 25° C., 60% relative humidity. The indicator was the total impurity content, which is determined by detection of samples three times at each time point with the average value recorded. The time points for sampling include 0, 1, 2, 3 and 6 months after packing.

[5] = Effects of tabletting processes on the crystalline form II (XRD); assay type: physicochemical; details: tableted under 20 kg and 25 kg pressure
Protocol: Tabletting method: 50 mg of the crystalline form II was tableted under 20 kg and 25 kg pressure by a single punching machine.
The XRD of the obtained sample powder was compared with the XRD of the crude sample, the results are shown in FIG. 8 (from top to bottom: the crude sample, the sample after 25 kg pressure tabletting and the sample after 20 kg pressure tabletting).

[6] = Influences of high temperature and high humidity on the crystalline form II (XRD); assay type: physicochemical; details: 10 days
Protocol: Two samples of 20 mg the crystalline form II were respectively placed at 60° C. (sealed and shielded from light) and 85% relative humidity (exposed in the air at room temperature and shielded from light), detected by XRD after 10 days and compared with XRD of the crude sample.

[7] = intragastric, 1 hour after administration
[8] = intragastric, 3 hours after administration
[9] = intragastric, 5 hours after administration
[10] = intragastric, 7 hours after administration
[11] = intragastric, 10 hours after administration
[12] = intragastric, 24 hours after administration
[13] = intragastric, before administration (reference value)
[14] = before administration (reference value)

CCOc1nc2cccc(C(=O)OC(C)OC(=O)OCc3nc(C)c(C)nc3C)c2n1Cc1ccc(-c2ccccc2-c2noc(=O)[n-]2)cc1.[K+] (stereo not shown) [Compound (A)]
effect of lowering heart rate compared with the compound (B) group [1]: more potent with longer-lasting effect of lowering heart rate
antihypertensive effect compared with the compound (B) group ([1]; intragastric): more potent with longer-lasting antihypertensive effect
Systolic blood pressure change [1, 7]: −7.0 ± 3.4 mmHg
Systolic blood pressure change [1, 8]: −34.3 ± 1.9 mmHg
Systolic blood pressure change [1, 9]: −46.5 ± 2.5 mmHg
Systolic blood pressure change [1, 10]: −49.4 ± 4.1 mmHg
Systolic blood pressure change [1, 11]: −45.3 ± 3.3 mmHg
Systolic blood pressure change [1, 12]: −25.9 ± 3.4 mmHg
Systolic blood pressure change [1, 13]: 0.0 ± 0.0 mmHg
Heart rate change ([1]; 1 hour after administration): −3.6 ± 2.4 times/minute
Heart rate change ([1]; 3 hours after administration): −5.0 ± 2.5 times/minute
Heart rate change ([1]; 5 hours after administration): −10.1 ± 3.0 times/minute
Heart rate change ([1]; 7 hours after administration): −17.5 ± 3.0 times/minute
Heart rate change ([1]; 10 hours after administration): −25.4 ± 2.4 times/minute
Heart rate change ([1]; 24 hours after administration): −28.6 ± 8 times/minute
Heart rate change [1, 14]: 0.0 ± 0.0 times/minute

CCOc1nc2cccc(C(=O)OC(C)OC(=O)OCc3nc(C)c(C)nc3C)c2n1Cc1ccc(-c2ccccc2-c2noc(=O)[nH]2)cc1 (stereo not shown) [Compound (B), reference compound]
Systolic blood pressure change [1, 7]: −4.9 ± 4.8 mmHg
Systolic blood pressure change [1, 8]: −22.0 ± 3.6 mmHg
Systolic blood pressure change [1, 9]: −30.5 ± 3.5 mmHg
Systolic blood pressure change [1, 10]: −38.8 ± 2.3 mmHg
Systolic blood pressure change [1, 11]: −33.0 ± 1.7 mmHg
Systolic blood pressure change [1, 12]: −10.2 ± 2.1 mmHg
Systolic blood pressure change [1, 13]: 0.0 ± 0.0 mmHg
Heart rate change ([1]; 1 hour after administration): −3.4 ± 2.6 times/minute
Heart rate change ([1]; 3 hours after administration): −2.33 ± 2.6 times/minute
Heart rate change ([1]; 5 hours after administration): −6.5 ± 2.8 times/minute
Heart rate change ([1]; 7 hours after administration): −6.2 ± 3.0 times/minute
Heart rate change ([1]; 10 hours after administration): −12.3 ± 2.8 times/minute
Heart rate change ([1]; 24 hours after administration): −6.7 ± 2.6 times/minute
Heart rate change [1, 14]: 0.0 ± 0.0 times/minute

CCOc1nc2cccc(C(=O)OC(C)OC(=O)OCc3nc(C)c(C)nc3C)c2n1Cc1ccc(-c2ccccc2-c2noc(=O)[n-]2)cc1.[K+] (stereo not shown) [crystalline form III]
transformation of crystalline form in competition with form I ([2]; equivalent amounts of form I and form III, ethyl acetate suspension, stirred overnight, XRD): completely transformed into the crystalline form I
transformation of crystalline form in competition with form II ([2]; equivalent amounts of form II and form III, ethyl acetate suspension, stirred overnight, XRD): completely transformed into the crystalline form II
share converted to the crystalline form I ([3]; dried overnight at room temperature, XRD): no more than 30%
stability at room temperature relative to crystalline form IV [3]: superior to that of the crystalline form IV
total impurity content ([4]; 0 months): 1.56%
total impurity content ([4]; 1 month): 2.55%
total impurity content ([4]; 2 months): 2.98%
total impurity content ([4]; 3 months): 3.34%
total impurity content ([4]; 6 months): 3.76%
chemical stability relative to the amorphous form [4]: better than the amorphous form

CCOc1nc2cccc(C(=O)OC(C)OC(=O)OCc3nc(C)c(C)nc3C)c2n1Cc1ccc(-c2ccccc2-c2noc(=O)[n-]2)cc1.[K+] (stereo not shown) [crystalline form II]
stability under room temperature relative to the competing form [2]: better than that of form I; also recorded: better than that of form III
stability at room temperature relative to crystalline form IV [3]: superior to that of the crystalline form IV
crystalline form after tabletting [5]: remains unchanged
crystalline form after high temperature ([6]; 60° C., sealed and shielded from light): remains unchanged
crystalline form after high humidity ([6]; 85% relative humidity, room temperature, shielded from light): remains unchanged
total impurity content ([4]; 0 months): 1.29%
total impurity content ([4]; 1 month): 1.43%
total impurity content ([4]; 2 months): 1.59%
total impurity content ([4]; 3 months): 1.82%
total impurity content ([4]; 6 months): 1.87%
chemical stability relative to the amorphous form [4]: better than the amorphous form

CCOc1nc2cccc(C(=O)OC(C)OC(=O)OCc3nc(C)c(C)nc3C)c2n1Cc1ccc(-c2ccccc2-c2noc(=O)[n-]2)cc1.[K+] (stereo not shown) [crystalline form IV]
transformation of crystalline form on drying ([3]; dried at room temperature, XRD): converted to crystalline form I; also recorded: completely transformed into the crystalline form I

CCOc1nc2cccc(C(=O)OC(C)OC(=O)OCc3nc(C)c(C)nc3C)c2n1Cc1ccc(-c2ccccc2-c2noc(=O)[n-]2)cc1.[K+] (stereo not shown) [crystalline form I]
stability under room temperature relative to the competing form [2]: better than that of the crystalline form III
content of crystalline form I in the obtained product ([2]; equivalent amounts of form I and form II, ethyl acetate suspension, stirred overnight, XRD): about 5%
stability at room temperature relative to crystalline form IV [3]: superior to that of the crystalline form IV
total impurity content ([4]; 0 months): 1.11%
total impurity content ([4]; 1 month): 1.62%
total impurity content ([4]; 2 months): 2.34%
total impurity content ([4]; 3 months): 2.49%
total impurity content ([4]; 6 months): 3.10%
chemical stability relative to the amorphous form [4]: better than the amorphous form

CCOc1nc2cccc(C(=O)OC(C)OC(=O)OCc3nc(C)c(C)nc3C)c2n1Cc1ccc(-c2ccccc2-c2noc(=O)[n-]2)cc1.[K+] (stereo not shown) [mixture of crystalline form I and II]
total impurity content ([4]; 0 months): 0.90%
total impurity content ([4]; 1 month): 1.58%
total impurity content ([4]; 2 months): 2.20%
total impurity content ([4]; 3 months): 2.40%
total impurity content ([4]; 6 months): 3.29%
chemical stability relative to the amorphous form [4]: better than the amorphous form
